# Measurements: patent US7582282B2, “Methods for optimizing clinical responsiveness to methotrexate therapy using metabolite profiling and pharmacogenetics” (Prometheus Laboratories Inc., priority 2003, dated 2009)
# Legend:
# [1] = Red blood cell MTXPG concentrations in 14 polyarthritis patients on low dose weekly methotrexate (HPLC-fluorometry)
# Experimental: The liquid chromatograph was an Agilent 1100 HPLC chemstation system composed of a quaternary pump, a system controller, an autoinjector, a sample cooler kept at 4° C., and a fluorometer. […] Methotrexate polyglutamates were detected with post-column derivatization using a photochemical reactor unit (Aura Industries, New York, N.Y.) equipped with an elongated 254 nm low pressure mercury ultraviolet lamp and containing a 1/16″ outer diameter TEFLON™ tubing (internal diameter 0.25 mm) assembled as a knitted coil and connected on-line between the analytical column and fluorometer. […] Methotrexate polyglutamate photolytic products were measured at an excitation wavelength of 274 nm and an emission wavelength of 464 nm, unless otherwise indicated. The retention times described herein were measured from time of injection to time of detection at the post-reactor unit fluorometer.
# HPLC separation was performed on a 25 cm×4.6 mm X Terra MS C18 column (Waters, Milford, Mass.), 5 μm particle size, protected by a guard column. […] Methotrexate polyglutamate photolytic products were analyzed at an excitation wavelength of 274 nm and an emission wavelength of 464 nm. […]
# Results were expressed as nmol/L packed red blood cells, and patient results were expressed as an average plus or minus the standard error of the mean (±SEM). […]
# [2] = human, in vivo
# Experimental: Red blood cell methotrexate polyglutamate concentrations were measured as described further below using HPLC-fluorometry with post-column photo-oxidation technique. The technologist in charge of quantification of red blood cell methotrexate polyglutamates was blinded to patients' clinical information.
# Mobile phase B consisted of acetonitrile.
# Red blood cell long-chain MTXPG concentrations were measured as described previously using an HPLC-fluorometry procedure with post-column photo-oxidation technique (Dervieux, Clin Chem. (2003)). The technologist performing the quantification of RBC MTXPGs (up to the penta-order of glutamation) was blinded to patient's information.
# The quantification limit of the analytical method is 5 nmol/L and the detection limit is 2 nmol/L packed RBC (for all MTXPG species) (Dervieux, Clin Chem. (2003)).
# [3] = test system: patients with rheumatoid arthritis; experiment: Cross-sectional clinical study of methotrexate effects in patients with rheumatoid arthritis (joint counts, VAS, mHAQ; regression analyses); format: in vivo, human; design: key to Physician's assessment of disease activity visual analog score (VAS), mean / Physician assessment of disease activity VAS: 10 cm visual analog scale; key to Modified health assessment questionnaire (mHAQ) score, mean / Modified Health assessment questionnaire: mean of 8 items, each 0 = without any difficulty to 3 = unable to do
# Experimental: In this cross-sectional study, eligibility was limited to patients of at least 18 years of age who met the revised criteria of the American Rheumatism Association for Rheumatoid Arthritis and had received low dose methotrexate therapy for at least three months. Some patients were on additional medications for rheumatoid arthritis, including low dose corticosteroids (<10 mg day), and folic acid supplementation (1 mg/day). The Institutional Review Board approved the study, and patient consent was obtained.
# Patient characteristics were collected at the time of the enrollment in the clinical study. Clinical assessment included a tender joint count, a swollen joint count, a Physician's Assessment of Disease Activity (using a 10 cm visual analog scale (VAS)), and a Patient's Assessment of Physical Function using the modified-Health Assessment Questionnaire (m-HAQ). The mHAQ is the average score obtained on eight items addressed to the patient to assess loss of typical lifestyle activities. Scoring of items within each is from 0 (without any difficulty) to 3 (unable to do). The eight items are as follows: 1: dress yourself, 2: get in and out of bed, 3: lift a full glass to your mouth, 4: walk, 5: wash and dry entire body, 6: bend down and pick up clothing, 7: turn faucets on and off, and 8: get in and out of a car. In addition to these standards, the American College of Rheumatology measures, and a Physician's Assessment of Response to methotrexate scored on a 10 cm visual analogue scale (VAS) were also used. In this visual analogue scale, “0” is defined as a perfect response, while “10” is defined as no response. Based on these definitions, a physician's assessment of response to MTX below group median corresponds to a perception of response above group median. Clinical data were collected on case report forms at the time of the clinical visit, and the physician and each patient were blinded to all laboratory parameters throughout the entire study. Furthermore, using the VAS for the physician's assessment of disease activity and the physician's assessment of response to methotrexate, the highest 25th percentiles for disease activity or response to methotrexate were calculated. Chi-square analysis was applied, and odds ratios (OR) were calculated.
# Genotyping was performed as follows: Whole blood (EDTA) was drawn the day of the clinical visit; genomic DNA was extracted using a Generation Purification Capture Column (Gentra Systems, Inc; Minneapolis, Minn.). The RFC-1 G80A polymorphism, which results in a […] substitution at codon 27 of RFC-1, was detected using the PCR RFLP method described in Chango et al., supra, 2000. The ATIC C347G polymorphism, which results in a threonine to serine substitution at position 116 of ATIC, was determined with a real time TaqMan allelic discrimination assay performed using fluorogenic 3′-minor groove binding probes. The forward primer sequence was 5′-[…]-3′ (SEQ ID NO:3), and the reverse primer sequence was 5′-[…]-3′ (SEQ ID NO:4). Allelic discrimination was performed using the wild-type fluorescent probe 5′-FAM-[…]-MGB 3′ (SEQ ID NO:5) and the mutant fluorescent probe 5′-VIC-[…]-MGB 3′ (SEQ ID NO:6). Final reaction conditions were as follows: 900 nM of each primer, 200 nM of each probe, 5 ng genomic DNA, and a 1×TaqMan master mix (Applied Biosystems; Foster City, Calif.). PCR reactions were incubated for one 2-minute cycle at 50° C., a 10-minute cycle at 95° C., and 40 cycles of 95° C. for 15 seconds, 58° C. for 15 seconds, and finally 60° C. for 45 seconds. Statistical analyses were performed using Statistica (StatSoft Inc., Tulsa, Okla.) essentially as follows. […]
# [4] = multivariate regression with RFC-1, ATIC, TSER genotypes, adjusted for corticosteroids and folic acid
# [5] = 108 patients on methotrexate, mean ± SEM
# [6] = 108 patients on methotrexate, median (range)
# [7] = multivariate linear regression adjusted for corticosteroids and folic acid
smiles,measurement,setting,value
"CN(Cc1cnc2nc(N)nc(N)c2n1)c1ccc(C(=O)N[C@@H](CCC(=O)N[C@@H](CCC(=O)N[C@@H](CCC(=O)O)C(=O)O)C(=O)O)C(=O)O)cc1 [MTXPG3, 4-amino-10-methylpteroyltri-glutamic acid]",Average share of total methotrexate polyglutamates,"[1]; 14 patients, RBC",55%
same,Median RBC long-chain MTXPGs concentration (MTXPG3),[2],40 nmol/L
same,"RBC long-chain MTXPGs concentration (MTXPG3), range",[2],<5 to 131 nmol/L
same,Logistic regression estimate for MTXPG3: probability of total number of tender and swollen joints below group median,"[3]; FIG. 4A, model with MTXPG3 only, estimate ± standard error",0.022±0.008
same,Logistic regression estimate for MTXPG3: probability of physician assessment of Disease activity VAS below group median,"[3]; FIG. 4B, model with MTXPG3 only",0.024±0.009
same,Logistic regression estimate for MTXPG3: probability of physician assessment of response to methotrexate VAS below group median,"[3]; FIG. 4C, model with MTXPG3 only",0.034±0.01
same,Logistic regression estimate for MTXPG3: probability of mHAQ below group median,"[3]; FIG. 4D, model with MTXPG3 only",0.014±0.008
same,Logistic regression estimate for MTXPG3: probability of total number of tender and swollen joints below group median,"[3]; FIG. 5A, model with MTXPG3 and RFC-1 G80A genotype",0.022±0.009
same,Logistic regression estimate for MTXPG3: probability of physician assessment of Disease activity VAS below group median,"[3]; FIG. 5B, model with MTXPG3 and RFC-1 G80A genotype",0.024±0.009
same,Logistic regression estimate for MTXPG3: probability of physician assessment of response to methotrexate VAS below group median,"[3]; FIG. 5C, model with MTXPG3 and RFC-1 G80A genotype",0.033±0.010
same,Logistic regression estimate for MTXPG3: probability of mHAQ below group median,"[3]; FIG. 5D, model with MTXPG3 and RFC-1 G80A genotype",0.015±0.008
same,Logistic regression estimate for MTXPG3: probability of total number of tender and swollen joints below group median,"[3]; FIG. 6A, model with MTXPG3 and ATIC C347G genotype",0.024±0.009
same,Logistic regression estimate for MTXPG3: probability of physician assessment of Disease activity VAS below group median,"[3]; FIG. 6B, model with MTXPG3 and ATIC C347G genotype",0.025±0.009
same,Logistic regression estimate for MTXPG3: probability of physician assessment of response to methotrexate VAS below group median,"[3]; FIG. 6C, model with MTXPG3 and ATIC C347G genotype",0.038±0.010
same,Logistic regression estimate for MTXPG3: probability of mHAQ below group median,"[3]; FIG. 6D, model with MTXPG3 and ATIC C347G genotype",0.013±0.008
same,Logistic regression estimate for MTXPG3: probability of total number of tender and swollen joints below group median,"[3]; FIG. 7A, model with MTXPG3 and PGENi (RFC-1, ATIC)",0.023±0.009
same,Logistic regression estimate for MTXPG3: probability of physician assessment of Disease activity VAS below group median,"[3]; FIG. 7B, model with MTXPG3 and PGENi (RFC-1, ATIC)",0.025±0.009
same,Logistic regression estimate for MTXPG3: probability of physician assessment of response to methotrexate VAS below group median,"[3]; FIG. 7C, model with MTXPG3 and PGENi (RFC-1, ATIC)",0.036±0.010
same,Logistic regression estimate for MTXPG3: probability of mHAQ below group median,"[3]; FIG. 7D, model with MTXPG3 and PGENi (RFC-1, ATIC)",0.014±0.009
same,"MTXPG3 estimate, logistic regression: probability of physician's assessment of patient's response to MTX VAS≦2 cm",[3]; FIG. 12B,0.035±0.01
same,Estimate ± SEM of RBC MTXPG3 (nmol/L) for Modified Health assessment questionnaire,[3]; [4],−0.002 ± 0.002
same,Estimate ± SEM of RBC MTXPG3 (nmol/L) for Number of Swollen joints,[3]; [4],−0.035 ± 0.019
same,Estimate ± SEM of RBC MTXPG3 (nmol/L) for Number of Tender joints,[3]; [4],−0.047 ± 0.23
same,Estimate ± SEM of RBC MTXPG3 (nmol/L) for Patient's Global assessment of disease activity VAS,[3]; [4],−0.004 ± 0.009
same,Estimate ± SEM of RBC MTXPG3 (nmol/L) for Physician's Global assessment of disease activity VAS,[3]; [4],−0.025 ± 0.008
same,Estimate ± SEM of RBC MTXPG3 (nmol/L) for Physician's assessment of Patient's response to MTX VAS,[3]; [4],−0.026 ± 0.007
same,Fold more likely to have clinical responsiveness to the chemotherapy above average,[3]; patients with RBC MTXPG3 levels above 60 nmol/L,12.7 fold
"CN(Cc1cnc2nc(N)nc(N)c2n1)c1ccc(C(=O)N[C@@H](CCC(=O)O)C(=O)O)cc1 [Methotrexate, 4-amino-10-methylpteroylglutamic acid]",RBC concentration in a patient sample,[1]; one patient on 17.5 mg weekly methotrexate for at least 3 months,27 nmol/L
same,Modified Health assessment questionnaire,[3]; [5],0.55 ± 0.05
same,Number of Swollen joints (maximum 22),[3]; [5],4.0 ± 0.5
same,Number of Tender joints (maximum 22),[3]; [5],5.0 ± 0.6
same,Patient assessment of disease activity VAS,[3]; [5],4.1 ± 0.2
same,Physician assessment of disease activity VAS,[3]; [5],3.5 ± 0.2
same,Modified Health Assessment Questionnaire (mHAQ score),[3]; [6],0.375 (0-2)
same,Number of swollen and tender joints (total number),[3]; [6],5.5 (0-44)
same,Physician assessment of disease activity (10 cm VAS score),[3]; [6],2.9 (0.1-8.4)
same,Physician assessment of response to Methotrexate VAS,"[3]; 108 patients, mean ± SEM",2.7 ± 0.2
same,Physician assessment of response to methotrexate (10 cm VAS score),"[3]; 108 patients, median (range), 0 perfect response, 10 no response",2.1 (0.1-8.3)
same,Mean number of swollen joints,[3]; PGENi=0 (n=58 patients),5.5±0.8
same,"Modified health assessment questionnaire (mHAQ) score, mean",[3]; PGENi=0 (n=58 patients),0.68±0.07
same,"Physician's assessment of disease activity visual analog score (VAS), mean",[3]; PGENi=0 (n=58 patients),4.1±0.3
same,"Physician's assessment of response to MTX, mean",[3]; PGENi=0 (n=58 patients),3.0±0.2
same,Mean number of tender joints,"[3]; PGENi=0 (n=58 patients), PGENi from RFC-1, ATIC, TS homozygosity",6.4±0.9
same,Mean number of swollen joints,[3]; PGENi=1 to 3 (n=50 patients),2.3±0.4
same,Mean number of tender joints,[3]; PGENi=1 to 3 (n=50 patients),3.3±0.9
same,"Modified health assessment questionnaire (mHAQ) score, mean",[3]; PGENi=1 to 3 (n=50 patients),0.39±0.06
same,"Physician's assessment of disease activity visual analog score (VAS), mean",[3]; PGENi=1 to 3 (n=50 patients),2.6±0.3
same,"Physician's assessment of response to MTX, mean",[3]; PGENi=1 to 3 (n=50 patients),2.3±0.3
same,Estimate ± SEM of methotrexate dose (mg/week) for Modified Health assessment questionnaire,[3]; [7],−0.017 ± 0.009; p = 0.09
same,Estimate ± SEM of methotrexate dose (mg/week) for Number of Tender joints,[3]; [7],−0.17 ± 0.12; p = 0.15
same,Estimate ± SEM of methotrexate dose (mg/week) for Physician assessment of disease activity VAS,[3]; [7],−0.088 ± 0.044; p = 0.06
same,Fold more likely to have a good response to methotrexate therapy,[3]; patients with a PGENi between 1-3 (sum of homozygous variant genotypes),3.7 fold
same,Fold more likely to have Physician's Assessment of Patient's Response to Methotrexate VAS≦2 cm (good response),"[3]; pharmacogenetic index above 2 (index 0 to 5, variant alleles counted)",4.7 fold
